Series [1] is described as follows: log P. Type of series: physicochemical.
Where [2] appears, read: stated in text after the preparation example.
[3] abbreviates: Table 1, benzofuranyl alkanoates prepared analogously to Example 3.
[4] abbreviates: table of benzofuranone oximes prepared analogously to Example 2.

Structures are written as SMILES.

Broadly, the logP is the decadic logarithm of the partition coefficient of the neutral form, usually between octanol and water. `CO/N=C1\COc2ccccc21` [Example 1, O-methyl benzofuran oxime] displayed a logP in series [1] (setting [2]) of 2.38.
As for `O/N=C1\COc2ccccc21` [Example 2], the logP in series [1] (setting [2]) was 1.44.
One may read the melting point as the temperature of the solid-liquid transition. In turn, `CC(=O)Oc1coc2cc(C(F)(F)F)ccc12` [Example 6] registered a melting point of 27 °C. For the same compound, the logP in series [1] (setting [3]) worked out at 3.38.
On the same counts, the results for `CC(=O)Oc1coc2cc(C)ccc12` [Example 7] are 32 to 36 °C and 3.09.
Regarding `COc1ccc2c(OC(C)=O)coc2c1` [Example 8], the logP in series [1] (setting [3]) was 2.65.
As for `O/N=C1\COc2cc(C(F)(F)F)ccc21` [Example 11], the melting point was 150 °C (dec.). For the same compound, the logP in series [1] (setting [4]) worked out at 2.38.
On to `Cc1ccc2c(c1)OC/C2=N\O` [Example 12], for which, in series [1] (setting [4]), the logP was found to be 1.79.
Consider `COc1ccc2c(c1)OC/C2=N\O` [Example 13], for which the logP in series [1] (setting [4]) is 1.52.
